Experimental data from article PMC6332188, “Synthesis, Antiviral Bioactivity of Novel 4-Thioquinazoline Derivatives Containing Chalcone Moiety” (Molecules, 2015).

Biological target: T1, TMV CP (tobacco mosaic virus coat protein) (Tobacco mosaic virus (vulgare), UniProt P69687)
T1 construct: labelled with Monolith NT Protein Labeling Kit Red
Assay: microscale thermophoresis
Assay type: binding
Description: microscale thermophoresis on TMV CP (tobacco mosaic virus coat protein)

T1 sequence (P69687 2-159 limits assumed): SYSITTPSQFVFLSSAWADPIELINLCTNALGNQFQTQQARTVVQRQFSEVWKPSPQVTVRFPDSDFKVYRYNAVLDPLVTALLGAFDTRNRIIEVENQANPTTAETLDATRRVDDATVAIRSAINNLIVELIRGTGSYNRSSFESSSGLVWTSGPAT

Row | SMILES | Kd [µM]
1 | COc1ccc(/C=C/C(=O)c2ccc(OCCSc3ncnc4ccccc34)cc2)cc1OC [M6, (E)-3-(3,4-Dimethoxyphenyl)-1-(4-(2-(quinazolin-4-ylthio)ethoxy)phenyl)prop-2-en-1-one] | 31.1 ± 1.83
2 | O=C(/C=C/c1ccc(Cl)cc1)c1ccc(OCCSc2ncnc3ccccc23)cc1 [M15] | 346 ± 23.9
3 | NC(=O)c1ncn([C@@H]2O[C@H](CO)[C@@H](O)[C@H]2O)n1 [Ribavirin] | 511 ± 33.1
